From patent US9796679B2, “Type 4 prepilin peptidase inhibitors and methods of use” (priority 2014, dated 2017)

Molecular target: T1, TcpJ (Vibrio cholerae serotype O1, UniProt A5F385)
T1 construct: made in house; host or cells: E. coli JM109 carrying pCL9 (total membrane fraction)
T1 sequence (A5F385 1-253): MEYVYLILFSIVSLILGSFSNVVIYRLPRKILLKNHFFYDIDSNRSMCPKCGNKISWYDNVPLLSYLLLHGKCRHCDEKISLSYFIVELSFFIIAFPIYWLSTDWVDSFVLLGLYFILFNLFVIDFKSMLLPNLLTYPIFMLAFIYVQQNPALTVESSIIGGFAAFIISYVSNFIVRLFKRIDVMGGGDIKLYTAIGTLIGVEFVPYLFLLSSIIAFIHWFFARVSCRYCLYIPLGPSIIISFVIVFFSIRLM
Assay: In vitro TcpA prepilin cleavage assay with inhibitors
Type: biochemical
Details: compared to compounds where R is methyl
Protocol: By way of illustration, the effect of inhibitors on the peptidase activity of TcpJ can be determined by incubating the inhibitor with an amount of membrane preparation known to contain 1 unit of activity of TcpJ for 30 minutes at room temperature. The TcpJ/inhibitor mixture is then tested for peptidase activity. Amounts of cleaved TcpA prepilin can be quantitated and applied to the formula: % cleavage=(amount of cleaved TcpA in inhibition assay/amount of cleaved TcpA in no inhibitor control assay)×100.
Membrane preparations were prepared according to a modified cell fractionation protocol (Pfau (1998) J. Bact. 180(17):4724-33). Overnight cultures were placed on ice for 20 minutes then pelleted at 5000×g for 10 minutes. The cell pellet was resuspended in 1 ml 200 mM Tris pH 8.0 to which 1 ml 50 mM Tris pH 8.0, 1 M sucrose, 2 ml water, 20 μl 0.5 M EDTA, and 20 μl lysozyme (10 mg/ml) were added. The cell suspension was allowed to incubate on ice for 30 minutes. Then, 100 μl 1 M MgSO4 was added and the suspension was pelleted at 5000×g for 10 minutes. […]
A membrane preparation from the E. coli strain K38 p3Z-A, pGP1-2, which was determined to contain 0.2 μg TcpA prepilin/μl, was the source of prepilin in the in vitro TcpJ proteases assay instead of purified prepilin. […]

SMILES: Nc1cc[n+](Cc2ccc(-c3ccc(C[n+]4ccc(N)c5ccccc54)cc3)cc2)c2ccccc12 [TC-7]
- IC50 value: lower IC50 value compared to compounds where R is methyl
